Data: patent publication US20120202794A1 (priority 2011, published 2012)

Columns and labels:
HCV Replicon 1b = test: HCV inhibition assay, HCV replicon 1b (Clone A or ET-lunet cells; RT-PCR or luciferase reporter); type: cell-based; conditions: Hepatitis C virus, 96 h, HCV replicon 1b; 4 days incubation; read-out: Replicon 1b potency EC90
Procedure, shortened: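 Clone A (1500/well) or ET-lunet (3000/well) replicon cells treated with serially diluted compounds (0.5% DMSO, no G418) for 4 days at 37 °C. HCV RNA measured by one-step RT-PCR normalized to rRNA (ΔΔCt) or by luciferase luminescence versus DMSO controls; EC50/EC90 by curve fitting.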

[1] = Cell cytotoxicity assay (MTS), CC90 as reported in Table 1, cell line not stated; type: cell-based; conditions: human; MTS assay; 8 days incubation; cell line not given
Procedure, shortened: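 Compounds, serially diluted from 100 μM, were incubated 8 days at 37° C with Huh7, HepG2 or BxPC3 (2×10^3 cells/well) or CEM (5×10^3 cells/well). Viability was read by MTS, 2 h, absorbance 490 nm. CC90 (90% inhibition) was taken against untreated cells.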

Structure (SMILES)	EC90 (HCV Replicon 1b) [nM]	CC90 at 8 days [1] [µM]
CC(C)C[C@H]1C(=O)N[C@@H](C2CCCC2)CN1C(=O)c1noc2c1CCc1cc(F)ccc1-2 [Compound 305, (3S,6S)-6-cyclopentyl-4-(7-fluoro-4,5-dihydronaphtho[2,1-d]isoxazole-3-carbonyl)-3-isobutylpiperazin-2-one]	1610	> 10
CC(C)C[C@H]1C(=O)N[C@@H](c2ccccc2)CN1C(=O)c1noc2c1CCc1cc(F)ccc1-2 [Compound 306, (3S,6S)-4-(7-fluoro-4,5-dihydronaphtho[2,1-d]isoxazole-3-carbonyl)-3-isobutyl-6-phenylpiperazin-2-one]	890	> 10
CC(C)C[C@H]1CN(C(=O)c2cc3c(s2)-c2ccccc2OC3)[C@@H](CC(C)C)C(=O)N1 [Compound 307, (3S,6S)-3,6-diisobutyl-4-(4H-thieno[3,2-c]chromene-2-carbonyl)piperazin-2-one]	4710	> 10
CC(C)C[C@H]1CN(C(=O)c2cc3c(s2)-c2cc(F)ccc2OC3)[C@@H](CC(C)C)C(=O)N1 [Compound 308, (3S,6S)-4-(8-fluoro-4H-thieno[3,2-c]chromene-2-carbonyl)-3,6-diisobutylpiperazin-2-one]	6480	> 10
CC(C)C[C@H]1C(=O)N[C@@H](C(C)C)CN1C(=O)[C@@H]1C[C@H]1c1ccc(F)c(F)c1 [Compound 309, (3S,6S)-4-[(1R,2R)-2-(3,4-Difluoro-phenyl)-cyclopropanecarbonyl]-3-isobutyl-6-isopropyl-piperazin-2-one]	780	> 10
CC(C)C[C@H]1C(=O)N[C@@H](C2CCCC2)CN1C(=O)[C@@H]1C[C@H]1c1ccc(C(C)(C)C)cc1 [Compound 310, (3S,6S)-4-((1R,2R)-2-(4-(tert-butyl)phenyl)cyclopropanecarbonyl)-6-cyclopentyl-3-isobutylpiperazin-2-one]	950	> 10
CC(C)C[C@H]1C(=O)N[C@@H](C(C)C)CN1C(=O)[C@@H]1C[C@H]1c1ccc(C(C)(C)C)cc1 [Compound 311, (3S,6S)-4-((1R,2R)-2-(4-(tert-butyl)phenyl)cyclopropanecarbonyl)-3-isobutyl-6-isopropylpiperazin-2-one]	1860	> 10
CC(C)C[C@H]1C(=O)N[C@@H](c2ccccc2)CN1C(=O)[C@@H]1C[C@H]1c1ccc(C(C)(C)C)cc1 [Compound 312, (3S,6S)-4-((1R,2R)-2-(4-(tert-butyl)phenyl)cyclopropanecarbonyl)-3-isobutyl-6-phenylpiperazin-2-one]	1130	> 10
CCC[C@H]1CN(C(=O)c2cc(-c3ccc(Cl)cc3)no2)[C@@H](CC(C)C)C(=O)N1 [Compound 313, (3S,6S)-4-(3-(4-chlorophenyl)isoxazole-5-carbonyl)-3-isobutyl-6-propylpiperazin-2-one]	390	> 10
CC(C)C[C@H]1C(=O)N[C@@H](C2CCCC2)CN1C(=O)c1cc(-c2ccc(Cl)cc2)no1 [Compound 314, (3S,6S)-4-(3-(4-chlorophenyl)isoxazole-5-carbonyl)-6-cyclopentyl-3-isobutyl-piperazin-2-one]	510	> 10
CC(C)C[C@H]1C(=O)N[C@@H](C2CCCCC2)CN1C(=O)c1cc(-c2ccc(Cl)cc2)no1 [Compound 315, (3S,6S)-4-(3-(4-chlorophenyl)isoxazole-5-carbonyl)-6-cyclohexyl-3-isobutylpiperazin-2-one]	700	> 10
CC(C)C[C@H]1C(=O)N[C@@H](c2ccccc2)CN1C(=O)c1cc(-c2ccc(Cl)cc2)no1 [Compound 316, (3S,6S)-4-(3-(4-chlorophenyl)isoxazole-5-carbonyl)-3-isobutyl-6-phenylpiperazin-2-one]	280	> 10
CC(C)CC1=CN(C(=O)c2cc(-c3ccc(F)cc3)on2)[C@@H](CC(C)C)C(=O)N1 [Compound 317, (S)-4-(5-(4-Fluorophenyl)isoxazole-3-carbonyl)-3,6-diisobutyl-3,4-dihydro-pyrazin-2(1H)-one]	280	> 10
CC(C)C[C@H]1C(=O)N(C)[C@@H](c2ccccc2)CN1C(=O)c1cc(-c2ccc(F)cc2)on1 [Compound 321, (3S,6S)-4-(5-(4-fluorophenyl)isoxazole-3-carbonyl)-3-isobutyl-1-methyl-6-phenylpiperazin-2-one]	6450	> 10
CCN1C(=O)[C@H](CC(C)C)N(C(=O)c2cc(-c3ccc(F)cc3)on2)C[C@@H]1c1ccccc1 [Compound 322, (3S,6S)-1-ethyl-4-(5-(4-fluorophenyl)isoxazole-3-carbonyl)-3-isobutyl-6-phenylpiperazin-2-one]	> 10000	> 10
CCCN1C(=O)[C@H](CC(C)C)N(C(=O)c2cc(-c3ccc(F)cc3)on2)C[C@@H]1c1ccccc1 [Compound 323, (3S,6S)-4-(5-(4-fluorophenyl)isoxazole-3-carbonyl)-3-isobutyl-6-phenyl-1-propylpiperazin-2-one]	> 10000	> 10
CC(C)C[C@H]1C(=O)N[C@@H](C2CCCC2)CN1C(=O)[C@@H]1C[C@H]1c1ccc(F)cc1F [Compound 325, (3S,6S)-6-cyclopentyl-4-((1R,2R)-2-(2,4-difluorophenyl)cyclopropanecarbonyl)-3-isobutylpiperazin-2-one]	> 10000	> 10
CC(C)C[C@H]1C(=O)N[C@@H](C2CCCCC2)CN1C(=O)[C@@H]1C[C@H]1c1ccc(F)cc1F [Compound 326, (3S,6S)-6-cyclohexyl-4-((1R,2R)-2-(2,4-difluorophenyl)cyclopropanecarbonyl)-3-isobutylpiperazin-2-one]	> 10000	> 10
CC(C)C[C@H]1C(=O)N[C@@H](c2ccccc2)CN1C(=O)[C@@H]1C[C@H]1c1ccc(F)cc1F [Compound 327, (3S,6S)-4-[(1R,2R)-2-(2,4-difluoro-phenyl)-cyclopropanecarbonyl]-3-isobutyl-6-phenyl-piperazin-2-one]	7210	> 10
CC(C)C[C@H]1C(=O)N[C@@H](C2CCCCC2)CN1C(=O)[C@@H]1C[C@H]1c1ccc(C(C)(C)C)cc1 [Compound 328, (3S,6S)-4-((1R,2R)-2-(4-(tert-butyl)phenyl)cyclopropanecarbonyl)-6-cyclohexyl-3-isobutylpiperazin-2-one]	2430	> 10
CC(C)C[C@H]1CN(C(=O)[C@@H]2C[C@H]2c2ccc(Br)cc2)[C@@H](CC(C)C)C(=O)N1 [Compound 329, (3S,6S)-4-((1R,2R)-2-(4-bromophenyl)cyclopropanecarbonyl)-3,6-diisobutylpiperazin-2-one]	520	> 10
CCC[C@H]1CN(C(=O)[C@@H]2C[C@H]2c2ccc(Br)cc2)[C@@H](CC(C)C)C(=O)N1 [Compound 331, (3S,6S)-4-[(1R,2R)-2-(4-Bromo-phenyl)-cyclopropanecarbonyl]-3-isobutyl-6-propyl-piperazin-2-one]	560	> 10
CC(C)C[C@H]1C(=O)N[C@@H](c2ccccc2)CN1C(=O)[C@@H]1C[C@H]1c1ccc(Br)cc1 [Compound 333, (3S,6S)-4-[(1R,2R)-2-(4-bromo-phenyl)-cyclopropanecarbonyl]-3-isobutyl-6-phenyl-piperazin-2-one]	646	> 10
CCC[C@H]1CN(C(=O)[C@@H]2C[C@H]2c2ccc(C(C)(C)C)cc2)[C@@H](CC(C)C)C(=O)N1 [Compound 334, (3S,6S)-4-((1R,2R)-2-(4-(tert-butyl)phenyl)cyclopropanecarbonyl)-3-isobutyl-6-propyl-pylpiperazin-2-one]	900	> 10
O=C1N[C@@H](c2ccccc2)CN(C(=O)c2cc(-c3ccc(F)cc3)on2)[C@H]1CC1CC1 [Compound 336, (3S,6S)-3-(cyclopropylmethyl)-4-(5-(4-fluorophenyl)isoxazole-3-carbonyl)-6-phenylpiperazin-2-one]	360	> 10
O=C1N[C@@H](c2ccccc2)CN(C(=O)[C@@H]2C[C@H]2c2ccccc2)[C@H]1CC1CC1 [Compound 338, (3S,6S)-3-(cyclopropylmethyl)-6-phenyl-4-((1R,2R)-2-phenylcyclopropanecarbonyl)-piperazin-2-one]	5070	> 10
CC[C@@H](C)[C@H]1C(=O)N[C@@H](c2ccccc2)CN1C(=O)c1cc(-c2ccc(F)cc2)on1 [Compound 339, (3S,6S)-3-((R)-sec-butyl)-4-(5-(4-fluorophenyl)isoxazole-3-carbonyl)-6-phenylpiperazin-2-one]	800	> 10
CC[C@@H](C)[C@H]1C(=O)N[C@@H](c2ccccc2)CN1C(=O)[C@@H]1C[C@H]1c1ccccc1 [Compound 341, (3S,6S)-3-((R)-sec-butyl)-6-phenyl-4-((1R,2R)-2-phenylcyclopropanecarbonyl)-piperazin-2-one]	2540	> 10
CC(C)(C)C[C@H]1C(=O)N[C@@H](c2ccccc2)CN1C(=O)c1cc(-c2ccc(F)cc2)on1 [Compound 342, (3S,6S)-4-(5-(4-fluorophenyl)isoxazole-3-carbonyl)-3-neopentyl-6-phenylpiperazin-2-one]	200	> 10
CC(C)(C)C[C@H]1C(=O)N[C@@H](c2ccccc2)CN1C(=O)[C@@H]1C[C@H]1c1ccccc1 [Compound 344, (3S,6S)-3-neopentyl-6-phenyl-4-((1R,2R)-2-phenylcyclopropanecarbonyl)piperazin-2-one]	1000	> 10
